Reference: patent US4562275A, “Antitumor platinum complexes” (priority 1984, dated 1985)
Values joined by “and” are separate entries in the source; they are usually repeats but may differ in a detail not shown here. Equal entries are not always repeated.

Tests used:
M109 carcinoma = test: Antitumor activity vs ip M109 (Madison 109 lung) carcinoma in mice; assay type: in vivo, mouse; design: O.D.: unit not given here; conditions: for O.D.: ip M109 (2×; 4×); for Max. % T/C: ip M109 (2×; 4×): q3d × 2 or qd 1-4, ip, dying mice only
From the text: (§1) Results of antitumor testing against the transplantable mouse tumors L1210 leukemia, cisplatin-resistant L1210 leukemia, B16 melanoma, Madison 109 lung carcinoma and colon 26 carcinoma are shown below in Tables 1 and 2.
(§2) The methods used to evaluate the platinum complexes for antitumor activity and toxicity in animals are summarized below. These methods have been published elsewhere in more detail (Rose, et al. Cancer Treat. Rep. 66: 135, 1982; Florczyk, et al, Cancer Treat. Rep. 66: 187, 1982).
(§3) The parent line of L1210 leukemia (L1210) was maintained in DBA/2 mice by ip transplantation of 10^5 cells at weekly intervals. […] B16 malenoma (B16) was maintained by sc transplant in C57BL/6 mice every two weeks. Madison 109 lung carcinoma (M109) and colon 26 carcinoma (C26) were maintained by sc transplant in BALB/c mice every two weeks.
(§4) The level and route of tumor inoculum, host, group size, and drug treatment schedule and route for each tumor type are summarized below in Table 6. Each complex was evaluated initially against L1210 at 4 dose levels per schedule selected on the basis of lethality data provided by the Wadley Institute. In subsequent experiments with the other tumors the complexes were evaluated at a minimum of 3 dose levels selected on the basis of maximum tolerated levels in the L1210 experiments. Cisplatin-treated groups and a saline-treated (or untreated) tumor control group were included in each experiment.
(§5) The L1210 experiments were terminated on Day 30 whereas the B16, C26 and M109 experiments were terminated on Day 60 (some C26 experiments were terminated on Day 75). Mice alive at the termination day were autopsied and considered cured if no tumor was visible. […] A complex was considered active if it produced a % T/C value ≥125.
8 q3d^a × 2 or qd 1-4, ip

B16 melanoma = test: Antitumor activity vs ip B16 melanoma in mice; assay type: in vivo, mouse; design: O.D.: unit not given here; conditions: for O.D.: ip B16 (3×; 9×); for Max. % T/C: ip B16 (3×; 9×): q4d × 3 or qd 1-9, ip, dying mice only
From the text: as §2, §3
The level and route of tumor inoculum, host, group size, and drug treatment schedule and route for each tumor type are summarized below in Table 6. Each complex was evaluated initially against L1210 at 4 dose levels per schedule selected on the basis of lethality data provided by the Wadley Institute.
as §5

C26 carcinoma = test: Antitumor activity vs ip C26 (colon 26) carcinoma in mice; assay type: in vivo, mouse; design: O.D.: unit not given here; conditions: for O.D.: ip C26 (2×; 4×); for Max. % T/C: ip C26 (2×; 4×): q3d × 2 or qd 1-4, ip, dying mice only
From the text: as §1, §2, §3, §4, §5
8 q3d^b × 2 or qd 1-4, ip

BDF1 mice [1] = test: Nephrotoxicity: effect on blood urea nitrogen (BUN) in BDF1 mice; conditions: for BUN↑, Mouse: effect relative to cisplatin
Experimental: The other compounds were in such short supply that they were tested for effects on BUN values using the optimum dose (O.D.) from the L1210 test for dose selection.
The toxicity studies were done in male BDF1 mice (25-29 gm) and castrated male Fitch ferrets (1-1.5 kg).
The complexes that were active against L1210 were evaluated for nephrotoxicity by determining their effects on blood urea nitrogen (BUN) levels in mice. Groups of 40-50 mice/experiment were bled from the retro-orbital plexus and individual BUN values determined by a modified urease method using a Centrifichem System 400. The test complex, or saline for controls, was given at several dose levels (5-10 mice/dose) in single ip injections. The highest dose of the complex usually corresponded to its LD50 value or 1.5 times its optimal single dose in the L1210 experiment. At least two lower doses were included to evaluate dose-related effects. The BUN values were measured 4 and 7 days after dosing. BUN values ≥30 mg% were considered indicative of drug-induced nephrotoxicity.

ferret = test: Emetic effects (and lethality) in the ferret; assay type: in vivo, castrated male Fitch ferrets; conditions: for No. With Emesis/No. tested: 6 h observation
Experimental: Selected complexes were evaluated for emetic effects in ferrets. […] The time to the first emetic episode (retching and expulsion of vomitus) and the number of episodes were recorded. […] Subsequent test doses were selected based on the emetic response and lethality of the initial dose.

BDF1 mice [2] = test: Deaths (D.14) in the BUN test in BDF1 mice; assay type: in vivo, mouse
[3] = test system: L1210/CDDP (cisplatin resistant line of L1210 leukemia); test: Antitumor activity vs cisplatin-resistant L1210 leukemia (L1210/CDDP) in mice; assay type: in vivo, mouse; conditions: for Cures/total / O.D. (optimal dose): Day 1; for Max % T/C: Day 1, dying mice only
From the text: Results of antitumor testing against the transplantable mouse tumors L1210 leukemia, cisplatin-resistant L1210 leukemia, B16 melanoma, Madison 109 lung carcinoma and colon 26 carcinoma are shown below in Tables 1 and 2. […]
as §2, §3, §4, §5

L1210 leukemia = test: Antitumor activity vs transplantable L1210 leukemia (ip) in mice; assay type: in vivo, mouse; conditions: for Max % T/C: dying mice only; for OD (optimum dose): optimum dose from the L1210 test
From the text: The antitumor activities of the complexes provided by the present invention have been determined against L-1210 leukemia in the mouse and, for certain of the complexes, against other mouse tumor systems.
as §1
In Table 1 are shown the maximum % T/C values obtained for each platinum compound versus L1210 leukemia using both single and qd 1→5 dosing.
as §2, §3, §4, §5

[4] = L1210, single dose Day 1, ip, (a), (b) determinations
[5] = L1210, single dose Day 1, ip, dose giving the Max % T/C, same order

Row | Compound | O.D. (M109 carcinoma) | Max. % T/C (M109 carcinoma) | O.D. (B16 melanoma) | Max. % T/C (B16 melanoma) | O.D. (C26 carcinoma) | Max. % T/C (C26 carcinoma) | BUN↑, Mouse (BDF1 mice [1]) | Cures/total [3] | O.D. (optimal dose) [3] | Max % T/C [3] | O.D. (optimal dose) (L1210 leukemia; L1210, QD 1 → 5, ip) | Max % T/C (L1210 leukemia; L1210, QD 1 → 5, ip) | Max % T/C (L1210 leukemia; [4]) | O.D. (optimal dose) (L1210 leukemia; [5]) | OD (optimum dose) (L1210 leukemia) | further results
1 | N[C@@H]1CCCC[C@H]1N.O=C([O-])CC(=O)C(=O)[O-].[Pt+2] (relative stereo) [Example 2, oxaloacetato trans(-)-1,2-diaminocyclohexane platinum(II)] | 12 | 156% | 2 | 150% | 10 | 143% | 0 | 4/6 | 24 mg/kg/inj | 194% | 7.5 mg/kg/inj | 243% | 214% and 217% | 30 mg/kg/inj and 40 mg/kg/inj | 30 mg/kg/ip | Incidence of BUN > 30 mg % (BDF1 mice [1]; 30 mg/kg ip): 0/5; Incidence of BUN > 30 mg % (BDF1 mice [1]; 45 mg/kg ip): 0/4; Emesis Episodes (ferret; 16 mg/kg iv): 3; Emesis onset in responding animals (ferret; 16 mg/kg iv): 41 min; No. With Emesis/No. tested (ferret; 16 mg/kg iv): 1/1; Deaths D.14 (BDF1 mice [2]; 30 mg/kg ip): 0/5; Deaths D.14 (BDF1 mice [2]; 45 mg/kg ip): 1/5
2 | N[C@@H]1CCCC[C@H]1N.[O-]B([O-])O.[Pt+2] [Example 1, borato trans(-)-1,2-diaminocyclohexane platinum(II)] | 2 | 147% | 1 | 150% | 5 | 134% | 0 | 2/6 | 8 mg/kg/inj | 188% | 2 mg/kg/inj | 243% | 214% and 242% | 16 mg/kg/inj and 8 mg/kg/inj | 16 mg/kg/ip | Incidence of BUN > 30 mg % (BDF1 mice [1]; 16 mg/kg ip): 0/5; Incidence of BUN > 30 mg % (BDF1 mice [1]; 24 mg/kg ip): 0/3; Deaths D.14 (BDF1 mice [2]; 16 mg/kg ip): 0/5; Deaths D.14 (BDF1 mice [2]; 24 mg/kg ip): 3/5
3 | Cc1cn(C2CC(O)C(COP(=O)([O-])[O-])O2)c(=O)[nH]c1=O.NC1CCCCC1N.[Pt+2] (stereo not drawn) [Example 6, thymidylato trans(-)-1,2-diaminocyclohexane platinum(II)] | 12 | 95% | 6 | 177% | 36 | 109% | 0 | – | 20 mg/kg/inj | 175% | 10 mg/kg/inj | 221% | 200% and 207% | 40 mg/kg/inj and 45 mg/kg/inj | 40 mg/kg/ip | Incidence of BUN > 30 mg % (BDF1 mice [1]; 40 mg/kg ip): 0/5; Incidence of BUN > 30 mg % (BDF1 mice [1]; 60 mg/kg ip): 0/5; Emesis Episodes (ferret; 32 mg/kg iv): 13.5; Emesis onset in responding animals (ferret; 32 mg/kg iv): 17.5 min; No. With Emesis/No. tested (ferret; 32 mg/kg iv (lethal dose)): 2/2; Lethal dose (ferret; ferret, doses marked * = Lethal dose): 32 mg/kg iv; Deaths D.14 (BDF1 mice [2]; 40 mg/kg ip): 0/5; Deaths D.14 (BDF1 mice [2]; 60 mg/kg ip): 0/5
